Drawing on PubChem BioAssay AID179 (DTP/NCI, 2004), this text covers EC50, IC50 and outcome for 65 compounds.

Values joined by “and” are separate entries in the source; they are usually repeats but may differ in a detail not shown here. Equal values may be shown once. Active and inactive are the calls of the source.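 Rule for the calls: active = compounds giving half or more protection of infected cells from virus-caused growth loss, again on retest; inactive = the rest.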 Where a SMILES comes first, the peptide text is derived from it. The star is where a group is joined. ONb = O=[N+]([O-])c1ccc(CO*)cc1; Cbz = O=C(OCc1ccccc1)*; NHNH2 = NN* A value given as a limit tells only on which side of the number the result lay.

The test system of this test is CEM cells HIV-1 protection, formazan growth assay. The test is described as follows: NCI AIDS Antiviral Assay. The note with it: for IC50: measured here: growth of uninfected CEM cells. In a few lines:
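Human CEM cells, uninfected and HIV-1-infected, exposed to five drug concentrations; growth measured by soluble formazan assay and scored as percent protection from infection, with protecting compounds retested.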

In general, EC50 refers to the concentration that produces a half-maximal response. The term IC50 denotes the concentration that inhibits the measured activity by half. A low value points to inhibition by little substance. As for `CC/C(Cl)=N\OC(=O)Nc1ccc(F)cc1F`, the EC50 was over 20 µM and the IC50 was 3.47 µM.

With `COc1c2c(cc3c(CCc4ccccc4)cc(=O)oc13)CCC(C)(C)O2`, the EC50 was over 14.5 µM and the IC50 was over 14.5 µM.

Regarding `COc1cc2c(cc1O)CC[C@@H]1C2CC[C@@]2(C)C1CC[C@@H]2O` (some centres not stated), the EC50 was over 2 µM and the IC50 stood at 0.331 µM.

Consider `COc1ccc2c(c1C)C(=O)C(O)(CC=C(C)C)O2` (configuration not stated), for which the EC50 was over 200 µM and the half-maximal inhibitory concentration (IC50) was 42.7 µM.

Regarding `COC1OC(COCc2ccc(Cl)cc2)C(OCc2ccc(Cl)cc2)C1N=[N+]=[N-]` (configuration not stated), the result was inactive.

In the case of `NC1=NS(=O)(=O)Nc2nc(-c3cccs3)[nH]c21`, the EC50 was over 200 µM and the IC50 was over 200 µM.

For the compound `CC(=O)OC1CCC2(C)C(=CCC3C2CCC2(C)C3CC3N(c4ccccc4)C32C(C)=O)C1` (configuration not stated), the EC50 was 6.46 µM and the IC50 stood at 20 µM.

`O=c1[nH]c2c(c3ccccc13)CCc1ccccc1-2`: the result was inactive.

`NC1CS(=O)(=O)CC1O` (configuration not stated): the EC50 was over 200 µM and the IC50 was over 200 µM.

On to `CC1(C)SCCCCCCCSC(C)(C)SCCCCCCCS1`, for which the EC50 is over 63.1 µM and the IC50 was over 63.1 µM.

`CC(O)C(NC(=O)C(CCCCN)NC(=O)C(CC(=O)O)NC(=O)C(N)Cc1ccccc1)C(=O)NC(CO)C(=O)NC(CC(N)=O)C(=O)NC(CO)C(=O)N1CCCC1C(=O)NC(Cc1ccc(O)cc1)C(=O)NC(Cc1cnc[nH]1)C(=O)NC(Cc1ccccc1)C(=O)O` (configuration not stated) (H-FDKTSNSPYHF-OH; configuration not given here): the EC50 was over 46.8 µM and the IC50 was over 46.8 µM.

In the case of `O=C1OCc2c1cc1ccc(O)c(OC3OC(CO)C(O)C(O)C3O)c1c2-c1ccc2c(c1)OCO2` (configuration not stated), the EC50 is over 501 µM and the IC50 was over 501 µM.

As to `C=CO/N=[N+](\[O-])N(CC)CC`, the EC50 is over 200 µM and the IC50 is over 200 µM.

Consider `CCCCN(CC)C(=O)C(=O)Cc1nc2ccc(C(=O)c3ccccc3)cc2[nH]c1=O`, for which the EC50 was over 17.4 µM and the IC50 was over 17.4 µM.

In the case of `c1cnc2nc3n(c2c1)CSC3`, the EC50 was over 380 µM and the IC50 was 355 µM.

On to `Nc1ncnc2c(C3OC(CO)C(O)C3O)nsc12` (configuration not stated), for which the EC50 is over 200 µM.

Turning to `O=S1(=O)C[C@H](O)[C@H](O)CS1`, the EC50 was 8.32 µM and the IC50 was 75.9 µM.

As for `COC1=CC(=O)NCCN1`, the EC50 was 135 µM and the IC50 was found to be 479 µM.

With `CCOC(=O)N1C=NC23C(c4ccccc4)C(c4ccccc4)C12C(=O)N(C)C(=O)N3C` (configuration not stated), the EC50 was over 22.9 µM and the IC50 is over 22.9 µM.

As to `COc1ccc(OCC(=O)O)c2c1CCC(C)C2=O` (configuration not stated), the result was inactive.

As for `CCCCNc1nc2ccccc2c2c1ncn2CC(C)C`, the EC50 was over 200 µM and the IC50 stood at 20 µM.

Consider `O=C1c2cccc3c([N+](=O)[O-])ccc(c23)C(=O)N1CC1CCCO1` (configuration not stated), for which the EC50 is over 2 µM and the IC50 amounted to 0.195 µM.

`CCCCC(CC)CN=Cc1c(O)c(O)c(C(C)C)c2cc(C)c(-c3c(C)cc4c(C(C)C)c(O)c(O)c(C=NCC(CC)CCCC)c4c3O)c(O)c12` (configuration not stated): the EC50 was over 200 µM and the IC50 came out at 145 µM.

With `Cc1ccc2nc(CN3CCCC(O)C3)cc(=O)n2c1` (configuration not stated), the EC50 is over 200 µM and the IC50 was over 200 µM.

For the compound `C=C1CN(S(=O)(=O)c2ccc(C)cc2)CCCN(Cc2cccn2C)CCCN(S(=O)(=O)c2ccc(C)cc2)C1`, the EC50 was over 200 µM and the IC50 was 38.9 µM.

On to `Cc1ccc(N2C(=O)CS/C2=C(\C#N)c2nc3ccccc3[nH]2)cc1`, for which the EC50 was over 200 µM and the IC50 is over 200 µM.

For the compound `CC(C)(C)CC(C)(C)c1cc2c(O)c(c1)Cc1cc(C(C)(C)CC(C)(C)C)cc(c1O)Cc1cc(C(C)(C)CC(C)(C)C)cc(c1O)Cc1cc(C(C)(C)CC(C)(C)C)cc(c1O)Cc1cc(C(C)(C)CC(C)(C)C)cc(c1O)C2`, the EC50 was over 8.71 µM and the IC50 is over 8.71 µM.

Regarding `COc1c(O)cc2oc3cc(O)c(CC=C(C)C)c(O)c3c(=O)c2c1CC=C(C)C`, the EC50 is over 229 µM; the IC50 is 16.6 µM and 10.7 µM.

For the compound `CC(C)(CO)CNc1nc(N)nc(Cl)c1N`, the EC50 was over 200 µM and the IC50 was over 200 µM.

Consider `O=c1c(O)c(-c2ccc3c(c2)OCO3)oc2c(Cl)cc(Cl)cc12`, for which the EC50 is over 100 µM and the IC50 was over 100 µM.

On to `FC(F)(F)c1cc(NC2=NCCN=C(Nc3cc(C(F)(F)F)cc(C(F)(F)F)c3)SS2)cc(C(F)(F)F)c1`, for which the EC50 was over 200 µM and the IC50 was found to be 3.16 µM.

With `CC(=O)OCC(OC(C)=O)C(OC(C)=O)C(/C=N\Nc1nc2ccccc2c(=O)[nH]1)=N\Nc1nc2ccccc2c(=O)[nH]1` (configuration not stated), the EC50 was over 200 µM and the IC50 was over 200 µM.

Turning to `O=[N+]([O-])C(/C=C(\Cl)[N+](=O)[O-])=C(Nc1ccccc1)Nc1ccccc1`, the EC50 is over 200 µM and the IC50 came out at 6.61 µM.

For `Brc1ccc(CCc2ncc[nH]2)cc1`, the EC50 was over 282 µM and the IC50 is 174 µM.

As for `O=c1sc2ncccc2n1-c1ccc([N+](=O)[O-])cn1`, the EC50 was over 91.2 µM and the IC50 is over 91.2 µM.

For `O=C(N/N=C/c1cccc2ccccc12)c1cccnc1`, the EC50 was over 200 µM and the IC50 came out at 112 µM.

For the compound `O=[N+]([O-])c1c(C=Nc2ccccc2)oc(-c2ccc3c(c2)OCO3)c1-c1ccc2c(c1)OCO2`, the EC50 was over 49 µM and the IC50 is over 49 µM.

For the compound `CN1CCCC1CCNc1nc(C(Cl)(Cl)Cl)nc2cc(Cl)ccc12` (configuration not stated), the EC50 was over 24.5 µM and the IC50 turned out to be 12.9 µM.

With `CC(=O)NCCCCN(CCCNC(C)=O)C(=O)OCc1ccccc1`, the EC50 was over 200 µM and the IC50 was over 200 µM.

Consider `O=C1C=C(N2CC2)C(=O)C=C1N1CC1`, for which the EC50 is over 0.2 µM and the IC50 was found to be 0.0141 µM.

`Cc1cccc(SCc2nc3ccccc3c(C)[n+]2[O-])c1`: the concentration giving a half-maximal response (EC50) is 13.5 µM and the IC50 came out at 52.5 µM.

Turning to `O=c1c2cncnc2sc2nccn12`, the EC50 is over 200 µM and the IC50 was over 200 µM.

Turning to `N#C/C(N)=C(\C#N)NC=NCc1ccccc1`, the EC50 is over 200 µM and the IC50 was over 200 µM.

For the compound `COc1ccc(NC(=O)CC/C(CC(=O)c2ccccc2Cl)=N\Nc2nnc(C)n2N)cc1`, the EC50 was over 537 µM and the IC50 is 191 µM.

Consider `CCCCN=NNc1cn(C2OC(CO)C(O)C2O)c(=O)[nH]c1=O` (configuration not stated), for which the EC50 is over 200 µM and the IC50 was over 200 µM.

Consider `CN=C1CC2c3cc(OC)c(OC)cc3CCN2C2=C1C(=O)CC(C)(C)C2` (configuration not stated), for which the EC50 is over 200 µM and the half-inhibitory concentration (IC50) is over 200 µM.

Consider `CC(C)CCCC(C)[C@H]1CC[C@H]2[C@@H]3CC[C@H]4C[C@@H](CCC=C(c5cc(Cl)c(O)c(C(=O)OC(C)(C)C)c5)c5cc(Cl)c(O)c(C(=O)OC(C)(C)C)c5)CC[C@]4(C)[C@H]3CC[C@]12C` (some centres not stated), for which the EC50 is over 50.1 µM and the IC50 is over 50.1 µM.

Take `CC(=N\N=C\c1ccccn1)/C(C)=N/N=C(C)/C(C)=N/N=C/c1ccccn1`: the outcome was inactive.

`Cc1csc(NC23CC4CC(CC(C4)C2)C3)[n+]1C(P(=O)([O-])O)P(=O)(O)O` (configuration not stated): the EC50 was over 200 µM and the IC50 was over 200 µM.

Consider `Cn1cc(NC(=O)c2cc(NC(=O)CCCCCCC(=O)Nc3cc(C(=O)Nc4cc(C(=O)NCCC(=N)N)n(C)c4)n(C)c3)cn2C)cc1C(=O)NCCC(=N)N`, for which the EC50 is over 204 µM and the IC50 came to 35.5 µM.

On to `Nc1[nH]nc2nc3n(c(=O)c12)CCCCC3`, for which the EC50 is over 45.7 µM and the IC50 was over 45.7 µM.

On to `Cc1cc(OP2(=O)NCc3ccncc3O2)ccc1Cl` (configuration not stated), for which the EC50 is over 200 µM and the IC50 is over 200 µM.

Consider `CC(C)CC(NC(=O)C(CO)NC(=O)OCc1ccccc1)C(=O)NC(Cc1ccc(O)cc1)C(=O)NN` (stereo not drawn) (Cbz-Ser-Leu-Tyr-NHNH2; configuration not given here), for which the result was inactive.

Turning to `COC(=O)/C=C(/Sc1nc(Cl)c(Cl)nc1N)C(=O)OC` (tested in a mixture with another compound), the EC50 was over 200 µM and the IC50 stood at 2.45 µM.

As to `CCOC(=O)c1cc2nc(NC(=O)c3ccccc3)sc2n1C`, the EC50 was over 200 µM and the IC50 is over 200 µM.

Regarding `Clc1ccc(CN2COc3c(cc(Cl)c4cccnc34)C2)c(Cl)c1`, the EC50 is over 100 µM and the IC50 amounted to 1.74 µM.

Consider `N#CC(C(=O)CCCC(=O)Nc1ccccc1[N+](=O)[O-])c1c(Cl)cccc1Cl` (configuration not stated), for which the EC50 was over 309 µM and the IC50 is over 309 µM.

In the case of `CCCCCCC/C=N/[N-]C(=O)c1ccncc1.CCCCCCC/C=N\[N-]C(=O)c1ccncc1.[Ni+2]`, the EC50 is over 100 µM and the IC50 was 64.6 µM.

`CC(C)CC(NC(=O)C(Cc1cnc[nH]1)NC(=O)C(Cc1ccccc1)NC(=O)C1CCCN1C(=O)OCc1ccccc1)C(=O)NC(CC(C)C)C(=O)NC(C(=O)NC(Cc1ccc(O)cc1)C(=O)NC(CO)C(=O)OCc1ccc([N+](=O)[O-])cc1)C(C)C` (configuration not stated) (Cbz-PFHLLVYS-ONb; configuration not given here): the EC50 is over 11 µM and the IC50 is over 11 µM.

Regarding `O=c1[nH]n(Cc2ccccc2CCl)c2ccc([N+](=O)[O-])cc12`, the EC50 is over 200 µM and the IC50 was 38 µM.

On to `O=C(c1ccccc1)c1ccc(OCCOc2ccc(Nc3ccccc3)cc2)cc1`, for which the EC50 was over 6.61 µM and the 50% inhibitory concentration (IC50) is over 6.61 µM.

As for `COC(=O)/C=C/c1ccc(OP(=O)(O)O)c(OC)c1`, the EC50 was over 200 µM and the IC50 is over 200 µM.

On to `CC(C)CCC[C@@H](C)C1CCC2[C@@H]3CC=C4C[C@@H](C(=O)NCCN(C)C)CC[C@]4(C)C3CC[C@@]21C` (some centres not stated), for which the outcome was inactive.

In the case of `C=CCOc1cc2c(ccc1=O)-c1c(cc(OC)c(OC)c1OC)CCC2NC(C)=O` (configuration not stated), the EC50 is over 200 µM and the IC50 came out at 3.63 µM.

Consider `Cc1cc(C2(c3cc(C)c(O)cc3C)OS(=O)(=O)c3ccccc32)c(C)cc1O`, for which the result was inactive.
